Experimental findings from paper PMC12838199, “A highly conserved ABC transporter mediates cello-oligosaccharide uptake in the extremely thermophilic, lignocellulolytic bacterium Anaerocellum bescii (f. Caldicellulosiruptor bescii)” (Applied and Environmental Microbiology, 2025) are described below.

Format in all cases: binding
Assay [1] addresses T1, Athe_0598 (Caldicellulosiruptor bescii, UniProt A0ABY1SBM3).
T1 construct: gene SAMN05216240_2512; IMAC purified after 68 °C heat treatment
As to the kind of experiment: differential scanning calorimetry. Conditions: 5 mM sugar, 2 mg/mL protein, 50 mM HEPES, 300 mM NaCl, pH 7.0; 4 °C/min. From the text: differential scanning calorimetry on Athe_0598

Assay [2] concerns the target T2, Athe_0597 (Caldicellulosiruptor bescii, UniProt A0ABY1SBW7).
T2 construct: gene SAMN05216240_2513; IMAC purified after 68 °C heat treatment
As to the kind of experiment: isothermal titration calorimetry. Conditions: 25 °C; 50 mM HEPES, 300 mM NaCl, pH 7.0 (storage and characterization buffer); single-site model. From the text:
isothermal titration calorimetry on Athe_0597

Assay [3] deals with T1, Athe_0598. As to the kind of experiment: isothermal titration calorimetry. Conditions: 25 °C; 50 mM HEPES, 300 mM NaCl, pH 7.0 (storage and characterization buffer); single-site model. From the text: isothermal titration calorimetry on Athe_0598
On the technique in general: In ITC the heat of successive injections is recorded.

In assay [4] the target is T2, Athe_0597. The assay can be described thus: differential scanning calorimetry. Conditions: 5 mM sugar, 2 mg/mL protein, 50 mM HEPES, 300 mM NaCl, pH 7.0; 4 °C/min. The source says:
differential scanning calorimetry on Athe_0597
(In general: Differential scanning calorimetry records heat flow against a reference as temperature is scanned.)

The Kd is a measure of binding affinity in units of concentration. A higher Kd goes with lower affinity.

T2 sequence (A0ABY1SBW7 entry or part of it): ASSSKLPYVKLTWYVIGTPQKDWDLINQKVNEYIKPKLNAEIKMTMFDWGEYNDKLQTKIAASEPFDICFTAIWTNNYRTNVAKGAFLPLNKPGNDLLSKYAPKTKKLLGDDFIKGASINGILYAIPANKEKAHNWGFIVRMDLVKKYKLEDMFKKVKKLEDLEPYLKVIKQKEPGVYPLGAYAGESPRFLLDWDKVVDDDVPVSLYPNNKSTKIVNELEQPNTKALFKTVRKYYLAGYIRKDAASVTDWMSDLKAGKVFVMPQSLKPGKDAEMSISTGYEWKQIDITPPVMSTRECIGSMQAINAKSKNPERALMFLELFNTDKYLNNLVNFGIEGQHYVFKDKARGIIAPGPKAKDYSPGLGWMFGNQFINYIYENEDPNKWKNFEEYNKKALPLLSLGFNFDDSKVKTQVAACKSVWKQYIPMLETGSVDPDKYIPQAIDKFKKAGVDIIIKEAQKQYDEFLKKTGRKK
T1 sequence (A0ABY1SBM3 entry or part of it): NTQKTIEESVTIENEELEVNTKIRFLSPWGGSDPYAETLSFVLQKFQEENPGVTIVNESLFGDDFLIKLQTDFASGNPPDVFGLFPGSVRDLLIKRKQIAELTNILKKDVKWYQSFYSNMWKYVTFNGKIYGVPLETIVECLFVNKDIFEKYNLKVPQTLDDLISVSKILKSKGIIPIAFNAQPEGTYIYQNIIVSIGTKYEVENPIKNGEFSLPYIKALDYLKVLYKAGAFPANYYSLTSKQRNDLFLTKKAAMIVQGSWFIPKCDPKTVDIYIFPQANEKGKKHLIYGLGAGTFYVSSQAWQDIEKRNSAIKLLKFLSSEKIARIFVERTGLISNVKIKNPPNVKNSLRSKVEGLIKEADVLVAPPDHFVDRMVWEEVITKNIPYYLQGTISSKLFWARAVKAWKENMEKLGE

Take `OC[C@H]1O[C@@H](O[C@H]2[C@H](O)[C@@H](O)C(O)O[C@@H]2CO)[C@H](O)[C@@H](O)[C@@H]1O` (stereo partly shown) [G2, cellobiose]: the “ΔTm (°C)” value came out at 8.53 °C at Athe_0598 [1] and 7.57 °C at Athe_0597 [4]. Further, the Kd on Athe_0597 [2] came out at 228 ± 100 nM; on Athe_0598 [3], 2840 ± 360 nM.

For the compound `OC[C@H]1O[C@@H](O[C@H]2[C@H](O)[C@@H](O)[C@H](O[C@H]3[C@H](O)[C@@H](O)C(O)O[C@@H]3CO)O[C@@H]2CO)[C@H](O)[C@@H](O)[C@@H]1O` (stereo partly shown) [G3, cellotriose], the Kd on Athe_0597 [2] stood at 942 ± 120 nM. The “ΔTm (°C)” value on Athe_0597 [4] came to 6.89 °C.

At Athe_0597 [2], `OC[C@H]1O[C@@H](O[C@H]2[C@H](O)[C@@H](O)[C@H](O[C@H]3[C@H](O)[C@@H](O)[C@H](O[C@H]4[C@H](O)[C@@H](O)C(O)O[C@@H]4CO)O[C@@H]3CO)O[C@@H]2CO)[C@H](O)[C@@H](O)[C@@H]1O` (stereo partly shown) [G4, cellotetraose] returned a dissociation constant Kd of 1970 ± 520 nM. In addition, the “ΔTm (°C)” value on Athe_0597 [4] is 9.30 °C.

With `OC[C@H]1O[C@@H](O[C@H]2[C@H](O)[C@@H](O)[C@H](O[C@H]3[C@H](O)[C@@H](O)[C@H](O[C@H]4[C@H](O)[C@@H](O)[C@H](O[C@H]5[C@H](O)[C@@H](O)C(O)O[C@@H]5CO)O[C@@H]4CO)O[C@@H]3CO)O[C@@H]2CO)[C@H](O)[C@@H](O)[C@@H]1O` (stereo partly shown) [G5, cellopentaose], at Athe_0597 [2], the Kd came to 1180 ± 120 nM. Moreover, on Athe_0597 [4], the “ΔTm (°C)” value stood at 8.72 °C.
